The nature of data set [1]: Human liver microsomal stability. The note with it: human liver microsomes; for Remaining (NCF = 60 min): without the NADPH cofactor. In general terms: Liver microsomes are vesicles of endoplasmic reticulum, rich in cytochrome P450 enzymes.
For data set [2], the system named is Mtb strain H37Rv. Briefly: Microplate Alamar Blue assay. It is filed as cell-based, Mycobacterium tuberculosis. The note with it: MABA, average of three measurements. For orientation: Alamar Blue is a resazurin reagent that responds to reducing activity.
The test system of data set [3] is Mtb V4207. Briefly: microbe, parasite or virus in culture. The format is cell-based. Particulars: Mycobacterium tuberculosis, V4207, read-out: Mtb MIC V4207/ DS.
Data set [4] deals with Vero cells. Description: Cytotoxicity against Vero cells. Particulars: Chlorocebus sabaeus, read-out: Vero cells IC50, Vero cells. The format is cell-based, African green monkey.
Data set [5] relates to clinically isolated strains of MDR/XDR-TB. Description: microbe, parasite or virus in culture. It is filed as cell-based, Mycobacterium tuberculosis.

In brackets after ≈: the same amount, converted by molar mass. Where two headings read alike, the source gives them in different places.

`O=C(O)Cc1ccccc1Nc1c(Cl)cccc1Cl` [Diclofenac, reference compound]: the “Remaining (T = 60 min)” value in data set [1] (with NADPH, after 60 min) worked out at 0.4%. In data set [1], the “Remaining (NCF = 60 min)” value was “stable”.

Take `CC(C)c1ccc(-c2cccc(CN3CC[Si](C)(C)CC3)n2)cc1` [Compound 13, 1-((6-(4-Isopropylphenyl)pyridin-2-yl)methyl)-4,4-dimethyl-1,4-azasilinane]: the MIC in data set [2] was 4 to 8 µg/mL.

As to `C[C@]12CC[C@H]3[C@@H](CCC4=CC(=O)CC[C@@]43C)[C@@H]1CC[C@@H]2O` [Testosterone, reference compound], the “Remaining (NCF = 60 min)” value in data set [1] is “stable”.

The IC50 is the concentration that gives 50% inhibition. `c1ccc(-c2ccc(-c3ccnc(CN4CCC5(CCCC5)CC4)c3)cc2)cc1` [Compound 62, 8-((4-([1,1'-Biphenyl]-4-yl)pyridin-2-yl)methyl)-8-azaspiro[4.5]decane]: the MIC is 0.0039 µg/mL (≈ 0.0102 µM) in data set [3], 0.0039 to 0.0625 µg/mL in data set [5] and 0.004 to 0.063 µg/mL (≈ 0.0105 to 0.165 µM) in data set [5] (Mycobacterium tuberculosis). In data set [1], the “Remaining (NCF = 60 min)” value was “stable”. For the same molecule, the IC50 in data set [4] is not below 16 µg/mL.

Regarding `CC(C)c1ccc(-c2ccnc(CN3CCC4(CCCC4)CC3)c2)cc1` [Compound 37, 8-((4-(4-Isopropylphenyl)pyridin-2-yl)methyl)-8-azaspiro[4.5]decane], the “Remaining (NCF = 60 min)” value in data set [1] was “stable”.

With `CC(C)c1ccc(-c2cc(CN3CC[Si](C)(C)CC3)ccn2)cc1` [Compound 17, 1-((2-(4-Isopropylphenyl)pyridin-4-yl)methyl)-4,4-dimethyl-1,4-azasilinane], the MIC in data set [2] was in the range of 4 to 8 µg/mL.

With `CC(C)c1ccc(-c2cc(CN3CC[Si](C)(C)CC3)ncn2)cc1` [Compound 27, 4-((4,4-Dimethyl-1,4-azasilinan-1-yl)methyl)-6-(4-isopropylphenyl)pyrimidine], in data set [2], the MIC fell in the range of 4 to 8 µg/mL.

In the case of `c1cc(-c2ccc(-c3ccoc3)cc2)cc(CN2CCC3(CCCC3)CC2)n1` [Compound 68, 8-((4-(4-(Furan-3-yl)phenyl)pyridin-2-yl)methyl)-8-azaspiro[4.5]decane], in data set [1], the “Remaining (NCF = 60 min)” value was “stable”.

The values above are taken from paper PMC10239758 (European journal of medicinal chemistry, 2023).
